Each structure is given as a SMILES string.

This assay deals with ATF4 luciferase reporter in HEK293T cells. The experiment in a line: ATF4-Luc assay (in vitro model of VWMD). Conditions: Homo sapiens, HEK-293T, 7 h, HEK293T cells carrying the ATF4 luciferase reporter, 1 μg/mL tunicamycin, One Glo luminescence. The class given is cell-based, human. An outline of the steps: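 Stable HEK293T line expressing firefly luciferase behind the human ATF4 5′-UTR, treated with 1 μg/mL tunicamycin plus compound for 7 hours. Luminescence read with One Glo; EC50 determined.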
A general note: Reporter assays use an easily measured gene product as a stand-in for the process of interest.
In the case of `O=C(N[C@H]1CC[C@H](n2cc(OCCOC(F)(F)F)cn2)CC1)[C@H]1C[C@@H](O)c2ccccc2O1` [Compound 637, (2R,4R)-4-hydroxy-N-[(1r,4R)-4-{4-[2-(trifluoromethoxy)ethoxy]-1H-pyrazol-1-yl}cyclohexyl]-3,4-dihydro-2H-1-benzopyran-2-carboxamide], the EC50 lay in the range of 50 to 250 nM.
As for `O=C(N[C@H]1CC[C@H](n2cc(OCCOC(F)(F)F)cn2)CC1)[C@H]1C[C@@H](O)c2cc(F)c(F)cc2O1` [Compound 638, (2R,4R)-6,7-difluoro-4-hydroxy-N-[(1r,4R)-4-{4-[2-(trifluoromethoxy)ethoxy]-1H-pyrazol-1-yl}cyclohexyl]-3,4-dihydro-2H-1-benzopyran-2-carboxamide], the EC50 was less than 10 nM.
For `COc1ncc(-c2cnn(C34CC(NC(=O)[C@H]5C[C@@H](O)c6cc(C(F)(F)F)c(F)cc6O5)(C3)C4)c2)cn1` [Compound 639, (2R,4R)-7-fluoro-4-hydroxy-N-{3-[4-(2-methoxypyrimidin-5-yl)-1H-pyrazol-1-yl]bicyclo[1.1.1]pentan-1-yl}-6-(trifluoromethyl)-3,4-dihydro-2H-1-benzopyran-2-carboxamide], the EC50 is less than 10 nM.
Then `O=C(NC12CC(n3cc(-c4ccc(C(F)(F)F)cn4)cn3)(C1)C2)[C@H]1C[C@H](O)c2cc(C(F)(F)F)c(F)cc2O1` [Compound 640, (2R,4S)-7-fluoro-4-hydroxy-6-(trifluoromethyl)-N-(3-{4-[5-(trifluoromethyl)pyridin-2-yl]-1H-pyrazol-1-yl}bicyclo[1.1.1]pentan-1-yl)-3,4-dihydro-2H-1-benzopyran-2-carboxamide], with less than 10 nM; and `O=C(NC12CC(n3cc(OCCCC(F)(F)F)cn3)(C1)C2)[C@H]1C[C@@H](O)c2cc(C(F)(F)F)c(F)cc2O1` [Compound 641, (2R,4R)-7-fluoro-4-hydroxy-N-{3-[4-(4,4,4-trifluorobutoxy)-1H-pyrazol-1-yl]bicyclo[1.1.1]pentan-1-yl}-6-(trifluoromethyl)-3,4-dihydro-2H-1-benzopyran-2-carboxamide], with less than 10 nM; and `O=C(NC12CC(n3cc(OCCCC(F)(F)F)cn3)(C1)C2)[C@H]1C[C@H](O)c2cc(C(F)(F)F)c(F)cc2O1` [Compound 642, (2R,4S)-7-fluoro-4-hydroxy-N-{3-[4-(4,4,4-trifluorobutoxy)-1H-pyrazol-1-yl]bicyclo[1.1.1]pentan-1-yl}-6-(trifluoromethyl)-3,4-dihydro-2H-1-benzopyran-2-carboxamide], with 10 to 50 nM.
Take `O=C(CO[C@H]1C[C@@H](OC(F)(F)F)C1)NC12CC(NC(=O)[C@H]3C[C@H](O)c4cc(C(F)(F)F)c(F)cc4O3)(C1)C2` [Compound 643, (2R,4S)-7-fluoro-4-hydroxy-N-[3-(2-{[(1s,3S)-3-(trifluoromethoxy)cyclobutyl]oxy}acetamido)bicyclo[1.1.1]pentan-1-yl]-6-(trifluoromethyl)-3,4-dihydro-2H-1-benzopyran-2-carboxamide]: the EC50 is less than 10 nM.
Take `O=C(CO[C@H]1C[C@@H](OC(F)(F)F)C1)NC12CC(NC(=O)[C@H]3C[C@@H](O)c4cc(C(F)(F)F)c(F)cc4O3)(C1)C2` [Compound 644, (2R,4R)-7-fluoro-4-hydroxy-N-[3-(2-{[(1s,3S)-3-(trifluoromethoxy)cyclobutyl]oxy}acetamido)bicyclo[1.1.1]pentan-1-yl]-6-(trifluoromethyl)-3,4-dihydro-2H-1-benzopyran-2-carboxamide]: the EC50 was less than 10 nM.
For the molecule `O=C(CO[C@H]1C[C@@H](OC(F)(F)F)C1)N[C@@H]1C[C@@H]2C[C@H]1C[C@H]2NC(=O)[C@H]1C[C@@H](O)c2cc(C(F)(F)F)c(F)cc2O1` [Compound 645, (2R,4R)-7-fluoro-4-hydroxy-N-[(1S,2R,4S,5R)-5-(2-{[(1s,3S)-3-(trifluoromethoxy)cyclobutyl]oxy}acetamido)bicyclo[2.2.1]heptan-2-yl]-6-(trifluoromethyl)-3,4-dihydro-2H-1-benzopyran-2-carboxamide], the EC50 is less than 10 nM.
For `O=C(CO[C@H]1C[C@@H](OC(F)(F)F)C1)N[C@H]1C[C@H]2C[C@@H]1C[C@@H]2NC(=O)[C@H]1C[C@@H](O)c2cc(C(F)(F)F)c(F)cc2O1` [Compound 646, (2R,4R)-7-fluoro-4-hydroxy-N-[(1R,2S,4R,5S)-5-(2-{[(1s,3R)-3-(trifluoromethoxy)cyclobutyl]oxy}acetamido)bicyclo[2.2.1]heptan-2-yl]-6-(trifluoromethyl)-3,4-dihydro-2H-1-benzopyran-2-carboxamide], the EC50 is less than 10 nM.
As for `O=C(CO[C@H]1C[C@@H](OC(F)(F)F)C1)NC12CCC(NC(=O)[C@H]3C[C@@H](O)c4cc(C(F)(F)F)c(F)cc4O3)(CC1)C[C@@H]2O` [Compound 647, (2R,4R)-7-fluoro-4-hydroxy-N-[(3S)-3-hydroxy-4-(2-{[(1s,3R)-3-(trifluoromethoxy)cyclobutyl]oxy}acetamido)bicyclo[2.2.2]octan-1-yl]-6-(trifluoromethyl)-3,4-dihydro-2H-1-benzopyran-2-carboxamide], the EC50 is less than 10 nM.
In the case of `O=C(NC12CC(c3cc(OCCCOC(F)(F)F)ncn3)(C1)C2)[C@H]1C[C@@H](O)c2cc(Cl)ccc2O1` [Compound 648, (2R,4R)-6-chloro-4-hydroxy-N-(3-{6-[3-(trifluoromethoxy)propoxy]pyrimidin-4-yl}bicyclo[1.1.1]pentan-1-yl)-3,4-dihydro-2H-1-benzopyran-2-carboxamide] it was less than 10 nM; in that of `O=C(NC12CC(c3cc(OCCCOC(F)(F)F)ncn3)(C1)C2)[C@H]1C[C@@H](O)c2cc(Cl)c(F)cc2O1` [Compound 649, (2R,4R)-6-chloro-7-fluoro-4-hydroxy-N-(3-{6-[3-(trifluoromethoxy)propoxy]pyrimidin-4-yl}bicyclo[1.1.1]pentan-1-yl)-3,4-dihydro-2H-1-benzopyran-2-carboxamide], less than 10 nM; in that of `O=C(NC12CC(n3cc4cc(COCC(F)(F)F)ccc4n3)(C1)C2)[C@H]1C[C@@H](O)c2cc(Cl)ccc2O1` [Compound 650, (2R,4R)-6-chloro-4-hydroxy-N-(3-{5-[(2,2,2-trifluoroethoxy)methyl]-2H-indazol-2-yl}bicyclo[1.1.1]pentan-1-yl)-3,4-dihydro-2H-1-benzopyran-2-carboxamide], less than 10 nM.
As for `O=C(NC12CC(n3cc4cc(COCC(F)(F)F)ccc4n3)(C1)C2)[C@H]1C[C@@H](O)c2cc(Cl)c(F)cc2O1` [Compound 651, (2R,4R)-6-chloro-7-fluoro-4-hydroxy-N-(3-{5-[(2,2,2-trifluoroethoxy)methyl]-2H-indazol-2-yl}bicyclo[1.1.1]pentan-1-yl)-3,4-dihydro-2H-1-benzopyran-2-carboxamide], the EC50 is less than 10 nM.
In the case of `COc1ccc2nn(C34CCC(NC(=O)[C@H]5C[C@@H](O)c6cc(Cl)ccc6O5)(C3)C4)cc2c1` [Compound 652, (2R,4R)-6-chloro-4-hydroxy-N-[4-(5-methoxy-2H-indazol-2-yl)bicyclo[2.1.1]hexan-1-yl]-3,4-dihydro-2H-1-benzopyran-2-carboxamide], the EC50 was 10 to 50 nM.
Then `COc1ccc2nn(C34CC(NC(=O)C5CNc6cc(C(F)(F)F)c(F)cc6O5)(C3)C4)cc2c1` (stereo not drawn) [Compound 653, 7-fluoro-N-[3-(5-methoxy-2H-indazol-2-yl)bicyclo[1.1.1]pentan-1-yl]-6-(trifluoromethyl)-3,4-dihydro-2H-1,4-benzoxazine-2-carboxamide], with 50 to 250 nM; and `COc1ccc2nn(C34CC(NC(=O)C5CNc6cc(C(F)(F)F)c(F)cc6O5)(C3)C4)cc2n1` (stereo not drawn) [Compound 654, 7-fluoro-N-[3-(5-methoxy-2H-pyrazolo[4,3-b]pyridin-2-yl)bicyclo[1.1.1]pentan-1-yl]-6-(trifluoromethyl)-3,4-dihydro-2H-1,4-benzoxazine-2-carboxamide], with 10 to 50 nM.

Broadly, the EC50 is the midpoint of the concentration-response curve.
